# Experiments:
# [1] = system: RIF-1 murine fibrosarcoma; experiment: Example 2: RIF-1 tumor growth delay (TVQT), amonafide alone and with other chemotherapeutics; settings: for TVQT: single agent, mean ± SE
# Method: Animals: Female C3H mice (Charles River Laboratories, Holister, Calif.), approximately 3 months old, were used for the study. The average body weight was approximately 25 g. Animals were maintained in isolator cages on a 12-hour light-and-dark cycle. Food and water were available ad libitum.
# Tumors: The RIF-1 murine fibrosarcoma cell line was maintained in in vitro culture (Waymouth medium supplemented with 20% fetal bovine serum) at 37 C. in a humidified 5% CO2 incubator. Log-phase RIF-1 cells were trypsinized and harvested from cell culture flasks to yield a concentration of 4×10^6 cells/mL, then injected intradermally in a volume of 50 μL (equivalent to 2×10^5 cells per injection) into both flanks of each mouse. Nine days later, when tumors reached approximately 100 mm^3 in size, the animals were randomized to different treatment groups.
# Four to five animals were assigned to each treatment group. The intrperitoneal injection volume was 100 μL. The oral administration volume was 100 μL. Combination treatments using two test agents were administered as two separate injections, with the second one following the first either immediately or after 30 minutes.
# Tumor volume (cubic millimeters, mm^3) was calculated according to the formula: V=π/6×D1×D2×D3 in which D1–3 are perpendicular diameters measured in millimeters (mm).
# Tumor volume quadrupling time (TVQT), defined as the time required for a tumor to grow to four times (4×) its initial volume (at the time of treatment), was used as a study endpoint. The TVQT was determined for each treatment group and expressed in days as the mean±standard error (SE).
# [2] = system: murine fibrosarcomas (RIF-1 cells); experiment: Example 1: tumor growth delay (TVQT) of RIF-1 fibrosarcoma, amonafide with cisplatin; format: in vivo, C3H mice; settings: single agent
# Method: When the tumors reached a volume of approximately 100 mm3, the mice were randomly assigned to each experimental group (4 mice per group).
# The chemopotentiator, amonafide, was obtained from NCI and was made to the appropriate concentration in DMSO. […] The compositions were injected systemically (i.e., intraperitoneally, i.p.), in a volume of 100 microliters. For the treatment of group 3, the chemopotentiator, amonafide, was injected 30 minutes prior to the injection of cisplatin. After treatment, the growth of the tumors was monitored three times per week by caliper measurements of three perpendicular diameters of the tumor and calculation of tumor volume from the formula: V=π/6×D1×D2×D3, where D1-3 represents tumor diameters, in mm.
# The tumors were followed until they reached a size of four times their day zero treatment volume (TVQT), or up to 30 days after treatment, whichever came first. The data is expressed as the “tumor volume quadrupling time” (TVQT) mean and as the “delay.” Mean TVQT is the mean days required for individual tumors to grow to four times the tumor volume at the initial treatment day. The “delay” is the median of days required for a tumor to grow to four times the mean size of the treated group, minus the median of days required to grow to four times the mean size of the control group. The data is also expressed as the ratio of the tumor volume quadrupling time of the treated tumor over the untreated control group (TVQT/CTVQT). Increasing values of this ratio indicate increased antitumor response.
# [3] = system: murine fibrosarcomas (RIF-1 cells); experiment: Example 3: RIF-1 tumor growth delay (TGD), amonafide with camptothecin, genistein or rosmarinic acid; format: in vivo, C3H mice; settings: single agent
# Method: Transplantable experimental murine fibrosarcomas (2×10^5 RIF-1 cells) were grown intradermally in the flanks of 3 month old female C3H mice (Charles River, Holister, Calif.). When the tumors reached a volume of −100 mm^3, the mice were randomly assigned to each experimental group (4 mice per group).
# Amonafide was manufactured by Penta for ChemGenex and was made to the appropriate concentration in saline. […] The compositions were injected systemically (i.e., intraperitoneally, i.p.), in a volume of 100 μl. For the treatment of groups 3, 5 and 7, amonafide, was injected immediately prior to the injection of camptothecin, genistein or rosmarinic acid. After treatment, the growth of the tumors was monitored three times per week by caliper measurements of three perpendicular diameters of the tumor and calculation of tumor volume from the formula: V=π/6×D1×D2×D3, where D1-3 represents tumor diameters, in mm.
# The data is also expressed as the tumor growth delay (TGD) median which is the median days to 4× the tumor volume from the initial treatment day, and as the delay which is the median days to 4× of the treated group minus the median days to 4× of the control group. The T/C ratio is the ratio of days to 4× of the treated tumors over the days to 4× of the untreated control tumors. Increasing values indicate increased antitumor response.
# The tumors were followed until they reached 4 times their Day 0 treatment volume or up to 30 days after treatment (tumor growth delay, TGD), whichever came first. The data is also expressed as the ratio of the tumor growth delay of the treated tumor (TGD) over the untreated control group (CTGD). Increasing values of this ratio indicate increased antitumor response.
# [4] = Example 2: animal deaths after treatment; format: in vivo, C3H mice; settings: formulated in DMSO at 12.5 mg/mL, IP
# Method: The average body weight was approximately 25 g. […] Food and water were available ad libitum.
# The intrperitoneal injection volume was 100 μL. The oral administration volume was 100 μL.
smiles,measurement,setting,value
O=c1[nH]cc(F)c(=O)[nH]1 [5-Fluorouracil],TVQT,[1]; 15 mg/Kg IP,6.7 days
same,TVQT,"[1]; 15 mg/Kg IP, listed as Fluorouracil/Saline",6.7 ± 0.4 days
same,TVQT,[1]; 30 mg/Kg IP,13.6 days
same,TVQT,"[1]; 30 mg/Kg IP, listed as Fluorouracil/Saline",13.6 ± 1.9 days
"CN(C)CCN1C(=O)c2cccc3cc(N)cc(c23)C1=O [Amonafide, 5-amino-2-[(dimethylamine)ethyl]-1H-benz[de-]isoquinoline-1,3-(2H)-dione]",Delay,[2]; 50 mg/kg i.p.,2.94 days
same,Mean TVQT ± S.E.,[2]; 50 mg/kg i.p.,9.7 ± 0.6 days
same,Median (TVQT),[2]; 50 mg/kg i.p.,9.0 days
same,TVQT/CTVQT,[2]; 50 mg/kg i.p.,1.5
same,TVQT,[1]; 30 mg/Kg IP,7.3 days
same,TVQT,"[1]; 30 mg/Kg IP, listed as Amonafide-Penta/Saline",7.3 ± 0.2 days
same,"antitumor activity, summary in words (versus amonafide alone and the individual test agents)","[1]; intraperitoneal amonafide, alone or in combination",had antitumor activity
same,Delay,[3]; 30 mg/kg i.p.,-0.36 days
same,Median (TGD),[3]; 30 mg/kg i.p.,7.0 days
same,TGD ± S.E.,[3]; 30 mg/kg i.p.,7.0 ± 0.4 days
same,TGD/CTGD,[3]; 30 mg/kg i.p.,0.9
same,animal deaths,[4],Two of four mice died
CC[C@@]1(O)C(=O)OCc2c1cc1n(c2=O)Cc2cc3ccccc3nc2-1 [Camptothecin],Delay,[3]; 6 mg/kg i.p.,5.45 days
same,Median (TGD),[3]; 6 mg/kg i.p.,12.8 days
same,TGD ± S.E.,[3]; 6 mg/kg i.p.,12.9 ± 0.5 days
same,TGD/CTGD,[3]; 6 mg/kg i.p.,1.7
"N.N.[Cl][Pt][Cl] [Cisplatin, cis-diamminedichloroplatinum II]",Delay,[2]; 4 mg/kg i.p.,2.10 days
same,Mean TVQT ± S.E.,[2]; 4 mg/kg i.p.,8.4 ± 0.3 days
same,Median (TVQT),[2]; 4 mg/kg i.p.,8.1 days
same,TVQT/CTVQT,[2]; 4 mg/kg i.p.,1.3
same,TVQT,[1]; 4 mg/Kg IP,9.2 days
same,TVQT,"[1]; 4 mg/Kg IP, listed as Cisplatin/WFI",9.2 ± 0.4 days
"COc1cc2c(c(OC)c1OC)-c1ccc(OC)c(=O)cc1[C@@H](NC(C)=O)CC2 [Colchicine, colchicine]",TVQT,[1]; 10 mg/Kg PO,6.3 days
same,TVQT,"[1]; 10 mg/Kg PO, listed as Colchicine/Saline",6.3 ± 0.3 days
COc1cc(/C=C/C(=O)CC(=O)/C=C/c2ccc(O)c(OC)c2)ccc1O [Curcumin],TVQT,[1]; 25 mg/Kg IP,9.7 days
same,TVQT,"[1]; 25 mg/Kg IP, listed as Curcumin/DMSO",9.7 ± 1.1 days
COc1cc([C@@H]2c3cc4c(cc3[C@@H](O[C@@H]3O[C@@H]5CO[C@@H](C)O[C@H]5[C@H](O)[C@H]3O)[C@H]3COC(=O)[C@H]23)OCO4)cc(OC)c1O [Etoposide],TVQT,[1]; 10 mg/Kg IP,8.5 days
same,TVQT,"[1]; 10 mg/Kg IP, listed as Etoposide/Saline",8.5 ± 0.5 days
O=c1c(-c2ccc(O)cc2)coc2cc(O)cc(O)c12 [Genistein],Delay,[3]; 60 mg/kg i.p.,0.78 days
same,Median (TGD),[3]; 60 mg/kg i.p.,8.1 days
same,TGD ± S.E.,[3]; 60 mg/kg i.p.,7.9 ± 0.4 days
same,TGD/CTGD,[3]; 60 mg/kg i.p.,1.1
"COC(=O)C[C@](O)(CCCC(C)(C)O)C(=O)O[C@@H]1C(OC)=C[C@]23CCCN2CCc2cc4c(cc2[C@H]13)OCO4 [Homoharringtonine, homoharringtonine]",TVQT,"[1]; 4 mg/Kg IP, listed as Homoharringtonine/WFI",8.5 ± 0.5 days
same,TVQT,"[1]; 4 mg/Kg IP, listed as homoharringtonie",8.5 days
CC(=O)O[C@H]1C(=O)[C@@]2(C)[C@H]([C@H](OC(=O)c3ccccc3)[C@]3(O)C[C@H](OC(=O)[C@H](O)[C@@H](NC(=O)c4ccccc4)c4ccccc4)C(C)=C1C3(C)C)[C@]1(OC(C)=O)CO[C@@H]1C[C@@H]2O [Paclitaxel],TVQT,[1]; 10 mg/Kg IP,7.9 days
same,TVQT,"[1]; 10 mg/Kg IP, listed as Paclitaxel/Cremaphor EL",7.9 ± 0.3 days
O=C(/C=C/c1ccc(O)c(O)c1)O[C@H](Cc1ccc(O)c(O)c1)C(=O)O [Rosmarinic Acid],Delay,[3]; 20 mg/kg i.p.,0.46 days
same,Median (TGD),[3]; 20 mg/kg i.p.,7.8 days
same,TGD ± S.E.,[3]; 20 mg/kg i.p.,8.4 ± 0.5 days
same,TGD/CTGD,[3]; 20 mg/kg i.p.,1.1
CC[C@]1(O)C[C@@H]2CN(CCc3c([nH]c4ccccc34)[C@@](C(=O)OC)(c3cc4c(cc3OC)N(C)[C@H]3[C@@](O)(C(=O)OC)[C@H](OC(C)=O)[C@]5(CC)C=CCN6CC[C@]43[C@@H]65)C2)C1 [Vinblastine],TVQT,[1]; 2 mg/Kg IP,8.6 days
same,TVQT,"[1]; 2 mg/Kg IP, listed as Vinblastine/Saline",8.6 ± 0.4 days
